Laboratory results as given in the NIST ThermoML archive (doi:10.1021/je800110r).

Details: Liquid, Vibrating tube method

CCCCCCCCCC [decane]
Details	mass density [kg/m3]
293.15 K, 34214 kPa	753.1
293.15 K, 34239 kPa	753.1
293.15 K, 34259 kPa	753.1
293.15 K, 34285 kPa	753.1
293.15 K, 34303 kPa	753.1
293.16 K, 19215 kPa	743.7
293.16 K, 19235 kPa	743.6
293.16 K, 19274 kPa	743.8
293.16 K, 19292 kPa	743.6
293.16 K, 19437 kPa	743.9
293.16 K, 33877 kPa	753
303.14 K, 364 kPa	722.4
303.14 K, 380 kPa	722.3
303.14 K, 402 kPa	722.5
303.14 K, 424 kPa	722.6
303.14 K, 441 kPa	722.6
303.14 K, 462 kPa	722.5
303.14 K, 488 kPa	722.6
303.14 K, 520 kPa	722.6
303.14 K, 547 kPa	722.7
303.14 K, 571 kPa	722.7
303.14 K, 602 kPa	722.8
303.14 K, 632 kPa	722.7
303.14 K, 677 kPa	722.6
303.14 K, 720 kPa	722.8
303.14 K, 760 kPa	722.8
303.14 K, 810 kPa	722.9
303.14 K, 862 kPa	723
303.14 K, 904 kPa	723
303.14 K, 946 kPa	723
303.14 K, 997 kPa	723
303.14 K, 1037 kPa	723
303.14 K, 1220 kPa	723.2
303.14 K, 1295 kPa	723.2
303.14 K, 1434 kPa	723.4
303.14 K, 1467 kPa	723.4
303.14 K, 1497 kPa	723.4
303.14 K, 1538 kPa	723.5
303.14 K, 1586 kPa	723.5
303.14 K, 1619 kPa	723.4
303.14 K, 1670 kPa	723.5
303.14 K, 1705 kPa	723.5
303.14 K, 1760 kPa	723.6
303.14 K, 1816 kPa	723.7
303.14 K, 1856 kPa	723.7
303.14 K, 1904 kPa	723.8
303.14 K, 1955 kPa	723.9
303.14 K, 1986 kPa	724
303.14 K, 2021 kPa	723.9
303.14 K, 2067 kPa	723.9
303.14 K, 2099 kPa	723.9
303.14 K, 2132 kPa	723.9
303.14 K, 2177 kPa	724
303.14 K, 2229 kPa	724
303.14 K, 2270 kPa	723.9
303.14 K, 2320 kPa	724.1
303.14 K, 2376 kPa	724.2
303.14 K, 2415 kPa	724.1
303.14 K, 2455 kPa	724.1
303.14 K, 2518 kPa	724.3
303.14 K, 2560 kPa	724.3
303.14 K, 2611 kPa	724.3
303.14 K, 2680 kPa	724.4
303.14 K, 2736 kPa	724.4
303.14 K, 2782 kPa	724.5
303.14 K, 2818 kPa	724.6
303.14 K, 2834 kPa	724.6
303.14 K, 3457 kPa	725
